Active and inactive are the calls of the source.
Legend:
[1] = target: RNA-editing ligase 1, mitochondrial (Trypanosoma brucei brucei, UniProt P86926); experiment: TbREL1 ligase inhibitors, dose response, biochemical, fluorescence, Trypanosoma brucei (AID 1117295); assay type: functional
[2] = target: G-protein coupled receptor 183 (Homo sapiens, UniProt P32249); experiment: SAR confirmation of small molecule antagonists of the EBI2 receptor via a luminescent beta-arrestin assa.; assay type: functional
[3] = target: Induced myeloid leukemia cell differentiation protein Mcl-1 (Homo sapiens, UniProt Q07820); assay type: functional
[4] = Artemis endonuclease inhibitor potency, dose response, biochemical, fluorescence intensity (AID 720701); assay type: functional;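 further: Artemis endonuclease enzyme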
Estrogen receptor beta [5] = target: T1, Estrogen receptor beta (Homo sapiens, UniProt Q92731);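 further: recombinant ER-beta bound to coactivator SRC1 peptide in presence of estradiol agonist; inhibitors block coactivator peptide binding and lower the FRET signal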
[6] = target: T2, Carboxy-terminal domain RNA polymerase II polypeptide A small phosphatase 1 (Homo sapiens, UniProt Q9GZU7); experiment: inhibitors of CTDSP1, concentration-response testing, biochemical assay, absorbance-based, actives from ultra-high-throughput screening (AID 540297); assay type: functional
T2 sequence (Q9GZU7 whole entry): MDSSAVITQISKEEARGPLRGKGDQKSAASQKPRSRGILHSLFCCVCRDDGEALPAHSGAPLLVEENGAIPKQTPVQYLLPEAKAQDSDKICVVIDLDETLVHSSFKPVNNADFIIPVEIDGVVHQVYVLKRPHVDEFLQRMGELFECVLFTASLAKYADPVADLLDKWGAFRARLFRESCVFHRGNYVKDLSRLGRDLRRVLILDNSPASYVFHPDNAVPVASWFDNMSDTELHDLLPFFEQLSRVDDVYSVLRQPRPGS

Estrogen receptor beta [7] = target: T1, Estrogen receptor beta; experiment: ERβ–SRC-3 coactivator interaction inhibitors, confirmation, orthogonal assay, biochemical, ELISA, streptavidin-HRP readout (AID 1060)
[8] = target: E3 ubiquitin-protein ligase UHRF1 (Homo sapiens, UniProt Q96T88); experiment: Counterscreen for inhibitors of 5-meCpG-binding domain protein 2 (MBD2): TRFRET-based biochemical high throughput dose response assay to identify inhibitors of binding of ubiquitin-like with PHD and ring finger domains 1 (UHRF1) to methylated oligonucleotide.
[9] = A549 cell cytotoxicity, dose response, cytotoxicity control, 24 h, CellTiter-Glo luminescence, cherry-picks (AID 1053115); assay type: functional, cell-based; conditions: A549, 24 h
[10] = HepG2 cell cytotoxicity, dose response, cytotoxicity control, cherry-picked samples (AID 1159577); assay type: functional, cell-based
[11] = P. falciparum Dd2 growth inhibitors, dose response, SYBR Green, cherry-picked samples (AID 1159567); assay type: functional, cell-based
[12] = inhibitors of PGC1a acetylation in cells, dose response, cell-based, cherry-picked samples (AID 720514); assay type: functional;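 further: potency may reflect raised or lowered acetylation signal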
[13] = target: T3, Methionyl-tRNA synthetase, putative (Trypanosoma brucei brucei, UniProt Q38C91); assay type: functional, Trypanosoma brucei brucei strain 927/4 GUTat10.1
T3 sequence (Q38C91 whole entry): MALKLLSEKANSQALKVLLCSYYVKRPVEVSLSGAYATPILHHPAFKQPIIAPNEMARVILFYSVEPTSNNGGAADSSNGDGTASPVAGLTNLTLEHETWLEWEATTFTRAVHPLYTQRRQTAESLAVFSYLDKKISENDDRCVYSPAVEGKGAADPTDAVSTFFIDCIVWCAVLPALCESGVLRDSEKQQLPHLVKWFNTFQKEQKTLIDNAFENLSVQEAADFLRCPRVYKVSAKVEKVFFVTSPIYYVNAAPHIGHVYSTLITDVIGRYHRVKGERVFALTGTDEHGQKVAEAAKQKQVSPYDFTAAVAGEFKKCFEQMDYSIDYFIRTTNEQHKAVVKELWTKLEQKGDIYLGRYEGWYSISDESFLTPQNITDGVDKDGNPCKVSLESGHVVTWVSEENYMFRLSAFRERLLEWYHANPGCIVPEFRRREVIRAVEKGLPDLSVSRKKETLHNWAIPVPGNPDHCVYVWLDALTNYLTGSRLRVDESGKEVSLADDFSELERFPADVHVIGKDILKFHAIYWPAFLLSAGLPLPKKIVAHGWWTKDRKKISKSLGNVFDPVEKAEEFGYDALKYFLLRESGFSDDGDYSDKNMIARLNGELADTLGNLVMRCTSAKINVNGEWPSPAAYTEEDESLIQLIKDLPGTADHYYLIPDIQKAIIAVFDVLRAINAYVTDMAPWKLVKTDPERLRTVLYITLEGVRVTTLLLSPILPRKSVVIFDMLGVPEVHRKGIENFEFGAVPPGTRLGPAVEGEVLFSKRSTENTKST

[14] = Counterscreen for inhibitors of Trypanosoma brucei methionyl tRNA synthetase (MetRS): Luminescence-based cell-based high throughput dose response assay to identify compounds that are cytotoxic to Jurkat human T lymphocyte cells.; assay type: functional
[15] = Late stage counterscreen for inhibitors of Trypanosoma brucei methionyl tRNA synthetase (MetRS): Luminescence-based cell-based high throughput dose response assay to identify compounds that are cytotoxic to Jurkat human T lymphocyte cells.; assay type: functional
[16] = target: T3, Methionyl-tRNA synthetase, putative; assay type: functional, Trypanosoma brucei brucei strain 927/4 GUTat10.1; remark: listed apart in the source
[17] = P. falciparum Dd2 blood-stage growth inhibition, dose response, SYBR Green fluorescence, erythrocytes, dry powder, set 2 (AID 1159574); assay type: functional, cell-based

T1 sequence (Q92731 whole entry, the tested form may be a part): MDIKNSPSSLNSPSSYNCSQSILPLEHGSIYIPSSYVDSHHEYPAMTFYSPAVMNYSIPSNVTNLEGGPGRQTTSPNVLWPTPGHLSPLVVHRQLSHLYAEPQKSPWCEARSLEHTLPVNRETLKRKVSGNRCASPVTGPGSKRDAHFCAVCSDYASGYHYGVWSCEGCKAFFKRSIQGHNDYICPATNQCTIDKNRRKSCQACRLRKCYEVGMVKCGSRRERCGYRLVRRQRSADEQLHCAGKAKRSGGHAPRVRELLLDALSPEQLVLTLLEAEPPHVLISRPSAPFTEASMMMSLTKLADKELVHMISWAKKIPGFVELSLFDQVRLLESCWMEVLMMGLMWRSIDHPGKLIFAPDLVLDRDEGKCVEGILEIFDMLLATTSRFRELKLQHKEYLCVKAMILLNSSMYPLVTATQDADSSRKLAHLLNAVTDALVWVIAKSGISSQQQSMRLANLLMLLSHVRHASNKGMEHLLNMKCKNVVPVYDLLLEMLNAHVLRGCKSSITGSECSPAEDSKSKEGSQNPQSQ
RNA-editing ligase 1, mitochondrial, sequence (P86926 whole entry): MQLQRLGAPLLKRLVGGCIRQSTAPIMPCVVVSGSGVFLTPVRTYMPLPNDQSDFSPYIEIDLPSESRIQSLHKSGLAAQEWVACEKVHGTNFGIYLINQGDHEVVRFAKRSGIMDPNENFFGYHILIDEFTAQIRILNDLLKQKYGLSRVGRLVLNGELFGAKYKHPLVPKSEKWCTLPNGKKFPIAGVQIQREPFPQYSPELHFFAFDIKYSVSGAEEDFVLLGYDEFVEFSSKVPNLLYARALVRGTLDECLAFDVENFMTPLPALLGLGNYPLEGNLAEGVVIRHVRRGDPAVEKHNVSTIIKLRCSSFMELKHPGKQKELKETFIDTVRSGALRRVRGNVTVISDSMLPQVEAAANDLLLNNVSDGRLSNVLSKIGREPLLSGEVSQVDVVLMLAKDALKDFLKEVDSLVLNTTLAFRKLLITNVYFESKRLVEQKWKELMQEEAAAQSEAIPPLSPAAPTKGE
G-protein coupled receptor 183, sequence (P32249 whole entry): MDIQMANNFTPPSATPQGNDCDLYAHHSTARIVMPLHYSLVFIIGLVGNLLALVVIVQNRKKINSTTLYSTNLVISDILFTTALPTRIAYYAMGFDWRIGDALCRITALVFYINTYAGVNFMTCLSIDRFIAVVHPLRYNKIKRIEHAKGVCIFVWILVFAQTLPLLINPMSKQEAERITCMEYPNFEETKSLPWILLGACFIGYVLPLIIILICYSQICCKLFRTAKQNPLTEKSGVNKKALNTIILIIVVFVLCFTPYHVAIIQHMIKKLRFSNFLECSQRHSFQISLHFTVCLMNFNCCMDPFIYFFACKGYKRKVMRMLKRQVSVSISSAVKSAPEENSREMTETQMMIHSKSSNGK
Induced myeloid leukemia cell differentiation protein Mcl-1, sequence (Q07820 whole entry): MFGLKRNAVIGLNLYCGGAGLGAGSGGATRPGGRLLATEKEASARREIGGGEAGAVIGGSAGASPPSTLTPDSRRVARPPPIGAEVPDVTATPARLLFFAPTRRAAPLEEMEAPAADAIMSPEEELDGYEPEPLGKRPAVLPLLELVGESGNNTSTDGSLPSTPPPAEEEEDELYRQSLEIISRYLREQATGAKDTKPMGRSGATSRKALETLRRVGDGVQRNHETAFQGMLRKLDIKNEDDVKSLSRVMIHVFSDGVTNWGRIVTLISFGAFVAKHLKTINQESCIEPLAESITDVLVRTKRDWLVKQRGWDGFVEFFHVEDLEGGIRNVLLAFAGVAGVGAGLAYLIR
E3 ubiquitin-protein ligase UHRF1, sequence (Q96T88 whole entry, the tested form may be a part): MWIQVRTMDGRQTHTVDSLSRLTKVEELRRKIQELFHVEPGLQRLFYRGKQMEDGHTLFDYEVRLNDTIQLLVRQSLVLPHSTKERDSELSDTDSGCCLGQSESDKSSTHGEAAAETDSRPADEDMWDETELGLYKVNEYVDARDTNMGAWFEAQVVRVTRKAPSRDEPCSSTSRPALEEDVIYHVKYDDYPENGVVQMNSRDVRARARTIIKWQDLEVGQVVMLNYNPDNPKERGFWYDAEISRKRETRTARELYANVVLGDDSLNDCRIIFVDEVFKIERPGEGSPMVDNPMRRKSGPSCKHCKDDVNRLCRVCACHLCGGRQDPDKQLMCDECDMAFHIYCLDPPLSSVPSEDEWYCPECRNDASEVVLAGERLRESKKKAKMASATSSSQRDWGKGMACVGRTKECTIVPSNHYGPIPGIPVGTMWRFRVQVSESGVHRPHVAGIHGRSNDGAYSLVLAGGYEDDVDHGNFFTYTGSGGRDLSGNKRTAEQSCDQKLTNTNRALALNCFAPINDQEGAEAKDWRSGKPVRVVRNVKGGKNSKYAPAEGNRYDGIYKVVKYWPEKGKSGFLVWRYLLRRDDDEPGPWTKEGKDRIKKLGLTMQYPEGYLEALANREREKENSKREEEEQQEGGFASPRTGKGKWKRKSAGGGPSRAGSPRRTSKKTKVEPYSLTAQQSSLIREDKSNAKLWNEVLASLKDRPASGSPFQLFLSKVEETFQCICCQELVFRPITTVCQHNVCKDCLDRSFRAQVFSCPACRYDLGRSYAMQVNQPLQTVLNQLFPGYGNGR

## COC(=O)C1=C(C)N(Cc2ccccc2C(F)(F)F)C(NCc2ccc(OC)cc2)=NC1c1ccccc1 (stereo not drawn)
[1]
  IC50: > 96.6 µM (inactive)

## O=C(/C=C/c1ccc(F)cc1)N1CCN(S(=O)(=O)c2cccc3ccccc23)CC1
[2]
  IC50: 0.0497 µM (active)

## Cc1nc2c(c(=O)n1CCC1=CCCCC1)c1nc3ccccc3nc1n2/N=C/c1ccco1
[3]
  IC50: 4.9 µM (active)
[4]
  IC50: 18.5 µM (active)
Estrogen receptor beta [5]
  IC50: > 50 µM (not active)
[6]
  IC50: 10.1 µM (active)

## Cc1onc(-c2ccccc2Cl)c1C(=O)NCc1ccco1
Estrogen receptor beta [7]
  IC50: > 50 µM (not active)
Estrogen receptor beta [5]
  IC50: > 50 µM (not active)
[8]
  IC50: > 43.8 µM (inactive)

## OC[C@@H]1Nc2ccc(-c3cccc(F)c3)cc2[C@@H]2[C@H]1CCN2Cc1ccc(F)cc1
[9]
  AC50: 52 µM (active)
[10]
  AC50: 17.8 µM (active)
[11]
  AC50: 5.68 µM (active)

## COc1cc(CN2C[C@@H]3N[C@H](C2)[C@@H]3c2ccc(-c3cccc(OC)c3)cc2)cc(OC)c1
[12]
  AC50: 9.18 µM (active)

## CC(C)(C)[C@H]1C=C(C(=O)NCc2nc3ccccc3[nH]2)O[C@@H](OCc2ccc(CO)cc2)C1
[13]
  IC50: 1.99 µM (active)
[14]
  IC50: 44.2 µM (inactive)
[15]
  IC50: 77 µM (inactive)
[16]
  IC50: 3.78 µM (active)

## COc1ccc(S(=O)(=O)N(C)C[C@@H]2OCc3ccccc3-c3c(n(C)c4ccccc34)C(=O)N([C@@H](C)CO)C[C@H]2C)cc1
[17]
  AC50: 2.27 µM (active)

From ChEMBL document CHEMBL1201862, “PubChem BioAssay data set” (2004)
